Patent publication US10376520B2, “Methods for the treatment of cardiovascular disorders” (Galapagos NV, priority 2015, dated 2019)

Test system: RA patients
Test: [HDL] determination, Study 1 (RA patients, add-on to MTX)
Assay type: in vivo, human
Experimental: Double-blind, placebo-controlled add on study in subjects with moderately to severely active RA who have an inadequate response to methotrexate (MTX) (oral or parenteral).
595 subjects randomized to one of 6 dose regimens of Compound 1 (dosed as a [Compound 1:HCl:3H2O]) (3 dose levels administered either once or twice daily) or placebo on top of each subject's stable dose of MTX.
Compound 1 (dosed as a [Compound 1:HCl:3H2O]) is dosed for twelve weeks once daily (q.d.) (50 mg, 100 mg or 200 mg) or twice daily (b.i.d.) (25 mg, 50 mg or 100 mg); or placebo.
At Week 12, the subjects on placebo who have not achieved 20% improvement in swollen joint count (SJC66) and tender joint count (TJC68) are re-randomized automatically to receive Compound 1 (dosed as a [Compound 1:HCl:3H2O]) either at 100 mg q.d. or 50 mg b.i.d. doses in a blinded fashion; subjects on 50 mg q.d. who have not achieved 20% improvement in SJC66 and TJC68 will be assigned to 100 mg q.d. and subjects on 25 mg b.i.d. that have not achieved a 20% improvement in SJC66 and TJC68 will be assigned to 50 mg b.i.d. Subjects who switch treatment at week 12 are handled as if they discontinued at week 12 for the purpose of statistical analysis, whereas subjects in the other groups will maintain their randomized treatment until Week 24.
This assay relies on a homogeneous enzymatic colorimetric test. In the presence of magnesium ions, dextran sulfate selectively forms water-soluble complexes with LDL, VLDL and chylomicrons which are resistant to PEG-modified enzymes.
The cholesterol concentration of [HDL]-cholesterol is determined enzymatically by cholesterol esterase and cholesterol oxidase coupled with PEG to the amino groups (approx. 40%).
In the presence of peroxidase, the hydrogen peroxide generated reacts with 4-amino-antipyrine and Sodium N-(2-hydroxy-3-sulfopropyl)-3,5-dimethoxyaniline (HSDA) to form a purple-blue dye. The color intensity of this dye is directly proportional to the cholesterol concentration and is measured photometrically.
Human serum and plasma samples [HDL] determination was done on a Roche/Hitachi Cobas c 701/702 system which automatically calculate the analyte concentration of each sample. Samples containing precipitates are centrifuged before performing the assay.

[1] = 2 x 25 mg b.i.d. (N = 86), week 1
[2] = 2 x 25 mg b.i.d. (N = 86), week 2
[3] = 2 x 25 mg b.i.d. (N = 86), week 4
[4] = 2 x 25 mg b.i.d. (N = 86), week 8
[5] = 2 x 25 mg b.i.d. (N = 86), week 12
[6] = 2 x 50 mg b.i.d. (N = 85), week 1
[7] = 2 x 50 mg b.i.d. (N = 85), week 2
[8] = 2 x 50 mg b.i.d. (N = 85), week 4
[9] = 2 x 50 mg b.i.d. (N = 85), week 8

O=C(Nc1nc2cccc(-c3ccc(CN4CCS(=O)(=O)CC4)cc3)n2n1)C1CC1 [Compound 1, cyclopropanecarboxylic acid {5-[4-(1,1-dioxo-thiomorpholin-4-ylmethyl)-phenyl]-[1,2,4]triazolo[1,5-a]pyridin-2yl}-amide]
[HDL] Mean CFB - 12 weeks results (50 mg q.d. (N = 82), week 1): 0.02 mmol/L
[HDL] Mean percentage CFB - 12 weeks results (50 mg q.d. (N = 82), week 1): 2%
[HDL] Median CFB - 12 weeks results (50 mg q.d. (N = 82), week 1): 0.01 mmol/L
[HDL] Mean CFB - 12 weeks results (50 mg q.d. (N = 82), week 2): 0.08 mmol/L
[HDL] Mean percentage CFB - 12 weeks results (50 mg q.d. (N = 82), week 2): 5%
[HDL] Median CFB - 12 weeks results (50 mg q.d. (N = 82), week 2): 0.08 mmol/L
[HDL] Mean CFB - 12 weeks results (50 mg q.d. (N = 82), week 4): 0.06 mmol/L
[HDL] Mean percentage CFB - 12 weeks results (50 mg q.d. (N = 82), week 4): 5%
[HDL] Median CFB - 12 weeks results (50 mg q.d. (N = 82), week 4): 0.05 mmol/L
[HDL] Mean CFB - 12 weeks results (50 mg q.d. (N = 82), week 8): 0.06 mmol/L
[HDL] Mean percentage CFB - 12 weeks results (50 mg q.d. (N = 82), week 8): 6%
[HDL] Median CFB - 12 weeks results (50 mg q.d. (N = 82), week 8): 0.10 mmol/L
[HDL] Mean CFB - 12 weeks results (50 mg q.d. (N = 82), week 12): 0.06 mmol/L
[HDL] Mean percentage CFB - 12 weeks results (50 mg q.d. (N = 82), week 12): 7%
[HDL] Median CFB - 12 weeks results (50 mg q.d. (N = 82), week 12): 0.05 mmol/L
[HDL] Mean CFB - 12 weeks results (100 mg q.d. (N = 85), week 1): 0.05 mmol/L
[HDL] Mean percentage CFB - 12 weeks results (100 mg q.d. (N = 85), week 1): 5%
[HDL] Median CFB - 12 weeks results (100 mg q.d. (N = 85), week 1): 0.06 mmol/L
[HDL] Mean CFB - 12 weeks results (100 mg q.d. (N = 85), week 2): 0.07 mmol/L
[HDL] Mean percentage CFB - 12 weeks results (100 mg q.d. (N = 85), week 2): 7%
[HDL] Median CFB - 12 weeks results (100 mg q.d. (N = 85), week 2): 0.07 mmol/L
[HDL] Mean CFB - 12 weeks results (100 mg q.d. (N = 85), week 4): 0.11 mmol/L
[HDL] Mean percentage CFB - 12 weeks results (100 mg q.d. (N = 85), week 4): 9%
[HDL] Median CFB - 12 weeks results (100 mg q.d. (N = 85), week 4): 0.13 mmol/L
[HDL] Mean CFB - 12 weeks results (100 mg q.d. (N = 85), week 8): 0.09 mmol/L
[HDL] Mean percentage CFB - 12 weeks results (100 mg q.d. (N = 85), week 8): 8%
[HDL] Median CFB - 12 weeks results (100 mg q.d. (N = 85), week 8): 0.11 mmol/L
[HDL] Mean CFB - 12 weeks results (100 mg q.d. (N = 85), week 12): 0.10 mmol/L
[HDL] Mean percentage CFB - 12 weeks results (100 mg q.d. (N = 85), week 12): 8%
[HDL] Median CFB - 12 weeks results (100 mg q.d. (N = 85), week 12): 0.10 mmol/L
[HDL] Mean CFB - 12 weeks results (200 mg q.d. (N = 86), week 1): 0.11 mmol/L
[HDL] Mean percentage CFB - 12 weeks results (200 mg q.d. (N = 86), week 1): 9%
[HDL] Median CFB - 12 weeks results (200 mg q.d. (N = 86), week 1): 0.13 mmol/L
[HDL] Mean CFB - 12 weeks results (200 mg q.d. (N = 86), week 2): 0.20 mmol/L
[HDL] Mean percentage CFB - 12 weeks results (200 mg q.d. (N = 86), week 2): 17%
[HDL] Median CFB - 12 weeks results (200 mg q.d. (N = 86), week 2): 0.20 mmol/L
[HDL] Mean CFB - 12 weeks results (200 mg q.d. (N = 86), week 4): 0.24 mmol/L
[HDL] Mean percentage CFB - 12 weeks results (200 mg q.d. (N = 86), week 4): 20%
[HDL] Median CFB - 12 weeks results (200 mg q.d. (N = 86), week 4): 0.25 mmol/L
[HDL] Mean CFB - 12 weeks results (200 mg q.d. (N = 86), week 8): 0.29 mmol/L
[HDL] Mean percentage CFB - 12 weeks results (200 mg q.d. (N = 86), week 8): 22%
[HDL] Median CFB - 12 weeks results (200 mg q.d. (N = 86), week 8): 0.30 mmol/L
[HDL] Mean CFB - 12 weeks results (200 mg q.d. (N = 86), week 12): 0.27 mmol/L
[HDL] Mean percentage CFB - 12 weeks results (200 mg q.d. (N = 86), week 12): 21%
[HDL] Median CFB - 12 weeks results (200 mg q.d. (N = 86), week 12): 0.26 mmol/L
[HDL] Mean CFB - 12 weeks results [1]: 0.00 mmol/L
[HDL] Mean percentage CFB - 12 weeks results [1]: 0%
[HDL] Median CFB - 12 weeks results [1]: 0.00 mmol/L
[HDL] Mean CFB - 12 weeks results [2]: 0.04 mmol/L
[HDL] Mean percentage CFB - 12 weeks results [2]: 4%
[HDL] Median CFB - 12 weeks results [2]: 0.05 mmol/L
[HDL] Mean CFB - 12 weeks results [3]: 0.05 mmol/L
[HDL] Mean percentage CFB - 12 weeks results [3]: 4%
[HDL] Median CFB - 12 weeks results [3]: 0.05 mmol/L
[HDL] Mean CFB - 12 weeks results [4]: 0.06 mmol/L
[HDL] Mean percentage CFB - 12 weeks results [4]: 5%
[HDL] Median CFB - 12 weeks results [4]: 0.10 mmol/L
[HDL] Mean CFB - 12 weeks results [5]: 0.06 mmol/L
[HDL] Mean percentage CFB - 12 weeks results [5]: 6%
[HDL] Median CFB - 12 weeks results [5]: 0.05 mmol/L
[HDL] Mean CFB - 12 weeks results [6]: 0.03 mmol/L
[HDL] Mean percentage CFB - 12 weeks results [6]: 4%
[HDL] Median CFB - 12 weeks results [6]: 0.05 mmol/L
[HDL] Mean CFB - 12 weeks results [7]: 0.12 mmol/L
[HDL] Mean percentage CFB - 12 weeks results [7]: 10%
[HDL] Median CFB - 12 weeks results [7]: 0.10 mmol/L
[HDL] Mean CFB - 12 weeks results [8]: 0.13 mmol/L
[HDL] Mean percentage CFB - 12 weeks results [8]: 12%
[HDL] Median CFB - 12 weeks results [8]: 0.13 mmol/L
[HDL] Mean CFB - 12 weeks results [9]: 0.13 mmol/L
[HDL] Mean percentage CFB - 12 weeks results [9]: 11%
[HDL] Median CFB - 12 weeks results [9]: 0.14 mmol/L
